Test results from patent publication US7563774B2, “Combination of FBPase inhibitors and antidiabetic agents useful for the treatment of diabetes” (Metabasis Therapeutics, Inc., priority 2000, dated 2009).

Key:
[1] = system: Zucker Diabetic Fatty (ZDF) rat; assay: Glucose lowering in the ZDF rat (Example W); assay type: in vivo; conditions: for Blood Glucose: 0.4% food admixture
Excerpt: The Zucker Diabetic Fatty (ZDF) rat is widely used as a model for human NIDDM as the progression of the disease in these rodents is similar to that described for human […] patients. […] Clark J B, Palmer C J (1982) Diabetes 30: 126A Terrettaz J, Jeanrenaud B (1983) Endocrinology 112: 1346-1351.

Goto-Kakizaki (GK) rats = assay: Acute combination treatment of insulin and an FBPase inhibitor in the Goto-Kakizaki rat (Example CC); assay type: in vivo
Description: Male Goto-Kakizaki (GK) rats were purchased at 9 weeks of age from Charles River Japan, Inc. (Tokyo, Japan). The rats were maintained under standard vivarium conditions (24-26° C., 12-hour light cycle, 12-hour dark cycle) and received standard chow and water ad libitum. At 48 weeks of age, animals were divided into 4 groups (n=6/group) after an overnight fast. The treatment groups were control, Compound J, insulin, and combination of Compound J and insulin. […] Insulin (human recombinant insulin, Penfill N300, Novo Nordisk, Denmark) was subcutaneously injected at the dose of 1.5 U/kg. Blood glucose levels in tail vein samples were measured by means of a Glucoloader-F, an automatic glucose analyzer, (A&T Co., Ltd., Tokyo, Japan).

Goto-Kakizaki rats = assay: Acute combination treatment of an alpha glucosidase inhibitor and an FBPase inhibitor in Goto-Kakizaki rats (Example EE); assay type: in vivo, rat
Description: Goto-Kakizaki rats, an animal model of lean NIDDM, were purchased at 5 weeks of age from Charles River Japan, Inc. (Tokyo, Japan). The rats were maintained under standard vivarium conditions (24-26° C., 12-hour light cycle, 12-hour dark cycle) and received standard chow and water ad libitum. At 18 weeks of age, animals were divided into 4 groups (n=5/group). The treatment groups were control, Compound J, acarbose (Bayer, Japan), and the combination of Compound J and acarbose. All animals were given 1 g/kg of corn starch by oral gavage. […] Acarbose was administered orally at a dose of 1 mg/kg simultaneously with starch. Blood glucose levels in tail vein samples were measured by means of a Glucoloader-F, an automatic glucose analyzer, (A&T Co., Ltd., Tokyo, Japan).

Sprague Dawley rats = assay: Oral glucose lowering in overnight fasted Sprague Dawley rats (Example G); assay type: in vivo, rat; conditions: […]
Description: Oral efficacy of Compound J was assessed in overnight fasted Sprague Dawley rats. […] At 1.5 h or 4 h post drug administration, a blood sample was taken from the tail vein and analyzed for blood glucose by means of an automated glucose analyzer (HemoCue, HemoCue Inc, Mission Viejo, Calif.).

[2] = system: streptozotocin diabetic Sprague Dawley rats; assay: Acute combination treatment of an FBPase inhibitor and an amylin agonist in streptozotocin diabetic rats (Example HH); assay type: in vivo, rat; conditions: pramlintide 10 micrograms i.v., Compound J 300 mg/kg p.o.
Description: Animals are then gavaged with 1 mL 50% glucose, and allowed ad libitum access to food. Blood glucose is collected from the tail vein at 0, 30, 60, 120, 180, and 240 minutes following glucose administration.

ZDF rats = assay: Chronic combination treatment of an insulin secretagogue and an FBPase inhibitor in the ZDF rat (Example Y); assay type: in vivo; conditions: maximal doses, 2 to 12 weeks
Excerpt: Male ZDF rats are purchased at 7 weeks of age from Genetics Models Inc. (Indianapolis, Ind.). […] At 8 weeks of age, animals are divided into 4 treatment groups (n=8/group). The treatments are control, Compound J, glyburide, and the combination of Compound J and glyburide. […] Other parameters measured by standard assays include: lactate, glycerol, alanine, triglycerides, free fatty acids, ketone bodies, hepatic and muscle glycogen, cholesterol, VLDL, HDL, hemoglobin Alc, body weight, food and water intake, as well as other measures of carbohydrate, lipid, and protein metabolism. […] Differences between groups are evaluated ANOVA using an appropriate post hoc test. Results are considered significant with p<0.05.

C57BL/KsJ db/db mice [3] = assay: Chronic combination treatment of insulin and Compound J in db/db mice (Example BB); assay type: in vivo, mouse; conditions: combination group versus insulin alone
Description: Male C57BL/KsJ db/db mice were purchased at 5 weeks of age from Clea Japan, Inc. (Tokyo, Japan). […] At 19 weeks of age, animals were divided into 2 groups (n=6/group). […] Blood glucose levels in tail vein samples were measured by means of a Glucoloader-F, an automatic glucose analyzer, (A&T Co., Ltd., Tokyo, Japan).

Db/db or ob/ob mice = assay: Acute combination treatment of a glycogen phosphorylase inhibitor and an FBPase inhibitor in db/db or ob/ob mice (Example FF); assay type: in vivo, mouse; conditions: 0.5 to 300 mg/kg p.o.
Description: Db/db or ob/ob mice are purchased at 5 weeks of age from Jackson Laboratories (Bar Harbor, Me.). The mice are maintained under standard vivarium conditions (24-26° C., 12-hour light cycle, 12-hour dark cycle) and receive standard chow and water ad libitum. At more than 10 weeks of age, animals are divided into 4 groups (n=5 to 7/group). […] Food is made available after treatment. Blood glucose levels in tail vein samples are measured by means of standard manual or automated methods.

C57BL/KsJ db/db mice [4] = assay: Acute combination treatment of a biguanide and an FBPase inhibitor in db/db mice (Example DD); assay type: in vivo, mouse
Description: Male C57BL/KsJ db/db mice were purchased at 5 weeks of age from Clea Japan, Inc. (Tokyo, Japan). The mice were maintained under standard vivarium conditions (24-26° C., 12-hour light cycle, 12-hour dark cycle) and received standard chow and water ad libitum. […] The treatment groups were control, compound J , metformin, and the combination of compound J and metformin. […] Food was removed after treatment. Blood glucose levels in tail vein samples were measured by means of a Glucoloader-F, an automatic glucose analyzer, (A&T Co., Ltd., Tokyo, Japan).

SMILES: CCOC(=O)[C@H](C)NP(=O)(N[C@@H](C)C(=O)OCC)c1ccc(-c2nc(N)sc2CC(C)C)o1 [Compound J, 2-Amino-5-isobutyl-4-{2-[5-(N,N′-bis((S)-1-ethoxycarbonyl)ethyl)phosphonamido]furanyl}thiazole]
- glycemic control [1]: significantly improved glycemic control
- Blood Glucose ([1]; Day 0): 674 ± 20 mg/dL
- Blood Glucose ([1]; Day 21): 452 ± 40 mg/dL
- plasma glucose lowering (Goto-Kakizaki (GK) rats; GK rats, acute): progressively decreased plasma glucose
- Plasma Glucose, % of before (Goto-Kakizaki (GK) rats; after 2 hour): (65.6 +/− 6.6) %
- Plasma Glucose (Goto-Kakizaki (GK) rats; after 2 hour, Compound J 50 mg/kg p.o., insulin 1.5 U/kg s.c.): 106.3 ± 11.0 mg/dL
- Plasma Glucose (Goto-Kakizaki (GK) rats; after 4 hours): 79.6 ± 4.9 mg/dL
- Plasma Glucose, % of before (Goto-Kakizaki (GK) rats; after 4 hours): (51.0 +/− 2.7) %
- Plasma Glucose (Goto-Kakizaki (GK) rats; after 6 hours): 35.4 ± 10.8 mg/dL
- Plasma Glucose, % of before (Goto-Kakizaki (GK) rats; after 6 hours): (22.6 +/− 6.7) %
- Plasma Glucose (Goto-Kakizaki (GK) rats; before (0 hour)): 161.8 ± 6.6 mg/dL
- Plasma Glucose, % of before (Goto-Kakizaki (GK) rats; before (0 hour)): (100.0 +/− 0.0) %
- Plasma Glucose, relative value (% of pre-treatment value) (Goto-Kakizaki rats; 0 min): (121.8 +/− 8.0) %
- Plasma Glucose (Goto-Kakizaki rats; 0 min, Compound J 10 mg/kg p.o. at −60 min, acarbose 1 mg/kg p.o. with starch): 218.4 ± 19.9 mg/dL
- Plasma Glucose (Goto-Kakizaki rats; 30 min after starch): 245.2 ± 29.9 mg/dL
- Plasma Glucose, relative value (% of pre-treatment value) (Goto-Kakizaki rats; 30 min after starch): (135.2 +/− 9.2) %
- Plasma Glucose (Goto-Kakizaki rats; 60 min after starch): 251.0 ± 28.6 mg/dL
- Plasma Glucose, relative value (% of pre-treatment value) (Goto-Kakizaki rats; 60 min after starch): (138.5 +/− 6.2) %
- Plasma Glucose (Goto-Kakizaki rats; 120 min after starch): 182.8 ± 18.0 mg/dL
- Plasma Glucose, relative value (% of pre-treatment value) (Goto-Kakizaki rats; 120 min after starch): (101.8 +/− 7.2) %
- Plasma Glucose (Goto-Kakizaki rats; 240 min after starch): 144.6 ± 9.8 mg/dL
- Plasma Glucose, relative value (% of pre-treatment value) (Goto-Kakizaki rats; 240 min after starch): (81.7 +/− 6.7) %
- Plasma Glucose, relative value (% of pre-treatment value) (Goto-Kakizaki rats; −60 min): (100.0 +/− 0.0) %
- Plasma Glucose (Goto-Kakizaki rats; −60 min relative to starch 1 g/kg): 179.8 ± 15.2 mg/dL
- Glucose Lowering, % (Sprague Dawley rats; Compound J 10 mg/kg p.o.): 66%
- Glucose Lowering, % (Sprague Dawley rats; Compound J 30 mg/kg p.o.): 85%
- postprandial glucose excursion [2]: attenuated the postprandial glucose excursion
- glycemic control (ZDF rats): more effective than glyburide as pancreatic function declines
- decrease of the insulin dose required to reduce plasma glucose to target levels (C57BL/KsJ db/db mice [3]): ~40%
- blood glucose lowering (Db/db or ob/ob mice): significantly lower blood glucose relative to control values
- Plasma Glucose, % of pretreatment value (C57BL/KsJ db/db mice [4]; after 2 hour): (70.2 +/− 14.6) %
- Plasma Glucose (C57BL/KsJ db/db mice [4]; after 2 hour, Compound J and/or metformin 150 mg/kg p.o.): 448.6 ± 42.5 mg/dL
- Plasma Glucose (C57BL/KsJ db/db mice [4]; after 4 hour): 376.7 ± 39.9 mg/dL
- Plasma Glucose, % of pretreatment value (C57BL/KsJ db/db mice [4]; after 4 hour): (72.4 +/− 5.0) %
- Plasma Glucose (C57BL/KsJ db/db mice [4]; after 6 hour): 357.7 ± 40.4 mg/dL
- Plasma Glucose, % of pretreatment value (C57BL/KsJ db/db mice [4]; after 6 hour): (68.7 +/− 5.5) %
- Plasma Glucose (C57BL/KsJ db/db mice [4]; after 8 hour): 386.5 ± 43.1 mg/dL
- Plasma Glucose, % of pretreatment value (C57BL/KsJ db/db mice [4]; after 8 hour): (74.2 +/− 5.8) %
- Plasma Glucose (C57BL/KsJ db/db mice [4]; before (0 hour)): 514.3 ± 23.0 mg/dL
- Plasma Glucose, % of pretreatment value (C57BL/KsJ db/db mice [4]; before (0 hour)): (100.0 +/− 0.0) %
- blood glucose lowering (C57BL/KsJ db/db mice [4]; db/db mice, acute): lowered blood glucose significantly relative to controls
